Laboratory results published in publication PMC3293351, “Pharmacokinetics and Excretion Studies on CDRI-85/92, an Antiulcer Proton Pump Inhibitor” (Scientia Pharmaceutica, 2011).
“And” between values parts separate entries of the source, which are not always exact repeats. Equal values may be shown once. Read-outs that look alike come from different tables or passages of the source. One block for each compound: values may come before it.

How the values were obtained:
free acidity = conditions: compared with Omeprazole; cited from earlier work
[1] = Pharmacokinetics in serum after 20 mg/kg oral and intravenous doses; assay type: in vivo, Sprague Dawley rats
Description: As the first step of experiment, an aqueous solution formulation of the compound was administered intravenously to conscious rats via the caudal vein at a dose of 20 mg/kg in a volume of approximately 1.0 ml/kg/rat. Before the experiment, the tail was cleaned with luke warm water and the caudal vein was dilated using xylene. Blood (approx. 1.2 ml) was collected by cardiac puncture under light ether anesthesia at 0.08, 0.25, 0.5, 1, 2, 3, 4, 5, 6, 8, 12, 24 and 48 h post dose. In the second study, conscious rats, fasted overnight, were fed orally at a dose of 20 mg/kg in a volume of 2.0 ml/kg/rat. After drug delivery, blood was collected at the same time points used in the intravenous study. Three rats were utilized for each time point and not more than three or four (later in case of 48 hr) blood samples from each rat, two of which were by intracardiac during the absorption-distribution phase (till 5 hr) and one from the venecava in the terminal phase (6 hr onwards), was withdrawn. Together in two sets of studies, there were 24 rats. (Pl refer to Sampling schedule: Table 1). The total volume of the blood withdrawn within 24 h from cardiac puncture was less than 10% of the total blood volume. Blood was allowed to clot in sealed glass tubes and centrifuged at 2000 rpm. The serum was separated and stored at −60°C until analyses.
Serum concentrations of the compound were determined by HPLC method as described by Srivastava & Gupta (2002) with minor modification. Briefly, to 0.5 ml serum (blank, spiked or test) in 10 ml test tube 1.5 ml of acetonitrile was added and vortex-mixed for 15 sec. The tubes were kept in fridge for 30 min for complete protein precipitation, vortex-mixed for 1 min and centrifuged at 1000 × g for 10 min at 4°C. Supernatant (1.5 ml) was transferred to a 10 ml conical tube without disturbing the lower precipitate pellet and evaporated to dryness in Savant speed vac concentrator. The residue was reconstituted in 0.1 ml of mobile phase, centrifuged at 1000 × g for 10 min and the resulting solution was injected onto the HPLC system.
After oral dose, serum peak concentration (Cmax) and the time to reach peak concentration (Tmax) were derived directly from the original data. The serum concentration-time data from intravenous and oral dosed rats were fitted to WinNonlin programme (version 1.5) to calculate various pharmacokinetic parameters (like AUC, Cl and Vd). The bioavailability for oral dose was calculated using the following equation:
%Bioavailability=AUCoral×Doseiv/AUCiv×Doseoral×100

[2] = Partition coefficient (log P), 1-octanol/phosphate buffer; assay type: physicochemical; conditions: 1-octanol/20 mM phosphate buffer; octanol partition, 20 mM phosphate buffer pH 7.4, 25°C
Description: Determination of log P was carried out according to the method of Said et al. (1996). 1-Octanol and 20 mM phosphate buffer (pH, 7.4) were mutually saturated for 6 h on magnetic stirrer and separated. A solution of the compound (1 mg/ml) was prepared in […]. Buffer (2 ml) and octanol containing CDRI-85/92 were placed in seven glass tubes and screw capped. These tubes were tumble-mixed for 2 h at 25°C at about 100 inversions/min. The organic and aqueous phases were separated by centrifugation at 2500 rev/min for 20 min. The concentration of the compound in aqueous and organic phase was determined by HPLC after a suitable dilution in mobile phase. The log P was calculated from the following equation:
Log P=logCoctanol/Cbuffer

Aqueous solubility = assay type: physicochemical
[3] = cited from earlier work
[4] = system: proton pumps of the kidney and bone; set-up: method as in PMID 17045703; conditions: cited from earlier work
[5] = set-up: method as in PMID 17045703; conditions: cited from earlier work
[6] = log P from potentiometric titration; assay type: physicochemical; conditions: aqueous solution titrated with 0.1 M NaOH
Description: where Coctanol and Cbuffer are the concentrations of the compound in octanol and buffer, respectively. Further, log P values {[…]} were also calculated after conducting potentiometric titration. It was carried out manually using a pH electrode and a variable volume pipette. A solution of the compound (1 mg/ml) was prepared in water and it was titrated with a 0.1 M NaOH solution, pH was measured simultaneously. The equivalence point (pKa- partition coefficient) was estimated from the inflection point in the titration curve from the plot between pH and volume of mL of NaOH solution.

[7] = Urinary, fecal and biliary excretion after 20 mg/kg oral and intravenous dose; assay type: in vivo, Sprague Dawley rats; conditions: for k el: Sprague Dawley, rat; for Excreted in urine, % of the dose: intravenously treated rats, bile duct cannulated as well as noncannulated
Description: Urinary, fecal and biliary excretion of CDRI-85/92 was studied in rats (n=3 per group) after a single 20 mg/kg oral and intravenous dose. Following treatment with CDRI-85/92, urine and feces samples were collected during 24 h with 12 h intervals. Urine was measured and kept in parafilm sealed tubes at −60°C till analyses. Feces samples were dried at 37°C, weighed, ground to fine powder using mortar-pestle and stored in desiccator until analyses. Untreated rats were housed in metabolic cages with food and water ad libitum and their feces and urine collected to serve as blank samples for method development and validation.
For biliary excretion study, bile duct of the rats was surgically cannulated under light ether anesthesia. Rats were dosed with the solution formulation of CDRI-85/92 at 20 mg/kg orally or intravenously and placed in Bollman cages. Bile samples were collected in glass tubes at 0–12 and 12–24 h post dose. The volume of the samples were recorded and stored at −60°C until analyses.
The HPLC method described above was validated for estimation of CDRI-85/92 in urine and bile by assaying the spiked control samples in these biomatrics at three concentration levels (20, 50 and 100 ng/ml of the drug). To have a robust method, inter- and intra-day validation was also conducted (Table 2).
For the preparation of the spiked control feces samples, weighed (25 mg) quantities of drug-free powdered feces were transferred to different glass tubes, fortified with appropriated volume of working dilutions of CDRI-85/92 prepared in methanol, mixed by gentle tapping and allowed to stand at room temperature for drying. The blank, spiked or test samples were moistened with 0.2 ml of KH2PO4 buffer (20 mM, pH 3.0) followed by addition of 1.0 ml of acetonitrile for protein precipitation. The tubes were sealed with parafilm and allowed to stand at room temperature with frequent vortexing. Supernatant were processed as described above for serum samples. For each analytical run, a calibration curve was constructed using peak response against the concentration in calibration standards prepared in same biomatrix.
The amount, cumulative amount and % of the administered dose excreted via urine, bile and feces were calculated.

[8] = system: glutathione-S-transferases; set-up: method as in PMID 15283303; conditions: formation of trans-isoform; cited from earlier work
gastric proton pump = conditions: cited from earlier work
[9] = set-up: method as in PMID 12711165; conditions: alike at acidic and basic pHs; cited from earlier work
[10] = method not specified; cited from earlier work
[11] = set-up: method as in PMID 12563304; conditions: in rats; cited from earlier work
[12] = Sprague Dawley, serum, rat, 20 mg/kg IV
[13] = Sprague Dawley, rat serum, 20 mg/kg oral
[14] = IV 20 mg/kg, bile duct cannulated rats
[15] = IV 20 mg/kg, non-cannulated rats
[16] = IV 20 mg/kg, non-cannulated rats, up to 24 h, 20 mg/kg
[17] = oral 20 mg/kg, bile duct cannulated rats
[18] = oral 20 mg/kg, bile duct cannulated rats, up to 24 h, 20 mg/kg
[19] = oral 20 mg/kg, non-cannulated rats
[20] = oral 20 mg/kg, non-cannulated rats, up to 24 h, 20 mg/kg

Cmax ([1]; Sprague Dawley, rat, serum, iv, 20 mg/kg, rat serum, 20 mg/kg IV, read-out: Cmax): 4910 ng/mL
half-life ([1]; Sprague Dawley, rat, serum, iv, 20 mg/kg, rat serum, 20 mg/kg IV, read-out: Elimination t1/2 (converted)): 2 h
Cmax ([1]; Sprague Dawley, rat, serum, po, 20 mg/kg, rat serum, 20 mg/kg oral, read-out: Cmax): 469 ± 45.5 ng/mL
MRT [1, 12]: 1.1 h
Vd [1, 12]: 3.7 L/kg
clearance [1, 12]: 18.3 mL/min
MRT ([1]; Sprague Dawley, serum, rat, 20 mg/kg oral): 3.9 h
bioavailability ([1]; Sprague Dawley, serum, rat, 20 mg/kg oral vs IV, based on AUC): 70.5%
AUC(0-inf) ([1]; Sprague Dawley, rat serum, 20 mg/kg IV): 1250 ng·h/mL
AUC(0-inf) [1, 13]: 882 ng·h/mL
Tmax [1, 13]: 1 h
Elimination t1/2 ([1]; rat serum, 20 mg/kg IV, 20 mg/kg): 2.1 h
Cmax ([1]; rat serum, 20 mg/kg oral, 20 mg/kg): 469.2 ng/mL
Time up to which detected in serum ([1]; rat, 20 mg/kg IV): up to 12 h
MAT (mean absorption time) ([1]; rat, 20 mg/kg oral, MRToral - MRTIV): 2.8 h
Earliest time detectable in serum ([1]; rat, post oral administration 20 mg/kg): 5 min
logP [2]: 0.53 ± 0.11
Solubility in formulation (Aqueous solubility; 10 and 20 mg/ml in triple distilled water): completely soluble
Solubility in water (Aqueous solubility; water): freely soluble in water
logP [6]: 0.55 ± 0.18
% of dose recovered, urine 0–12 h [7, 14]: 16.8%
fe (fraction excreted), urine [7, 14]: 0.90
% of dose recovered, urine total ([7]; IV 20 mg/kg, bile duct cannulated rats, up to 24 h, 20 mg/kg): 16.8 ± 2.7% and 16.8%
% of dose recovered, feces 0–12 h [7, 15]: 0.05%
% of dose recovered, feces 12–24 h [7, 15]: 0.02%
% of dose recovered, urine 0–12 h [7, 15]: 15.7%
fe (fraction excreted), feces [7, 15]: 0.0008
fe (fraction excreted), urine [7, 15]: 0.9
% of dose recovered, feces total [7, 16]: 0.08 ± 0.08% and 0.08%
% of dose recovered, urine total [7, 16]: 15.7 ± 3.3% and 15.7%
k el ([7]; bile, po, 20 mg/kg, oral 20 mg/kg, bile duct cannulated rats, read-out: Ke (excretion rate constant), bile (converted)): 2.78e-05 s⁻¹
k el ([7]; bile, po, 20 mg/kg, oral 20 mg/kg, bile duct cannulated rats, read-out: Kel (elimination rate constant), bile (converted)): 1.33e-05 s⁻¹
k el ([7]; feces, iv, 20 mg/kg, IV 20 mg/kg, non-cannulated rats, read-out: Ke (excretion rate constant), feces (converted)): 4.17e-05 s⁻¹
k el ([7]; feces, iv, 20 mg/kg, IV 20 mg/kg, non-cannulated rats, read-out: Kel (elimination rate constant), feces (converted)): 8.33e-06 s⁻¹
k el ([7]; feces, po, 20 mg/kg, oral 20 mg/kg, non-cannulated rats, read-out: Ke (excretion rate constant), feces (converted)): 1.94e-05 s⁻¹
k el ([7]; feces, po, 20 mg/kg, oral 20 mg/kg, non-cannulated rats, read-out: Kel (elimination rate constant), feces (converted)): 1.67e-05 s⁻¹
k el ([7]; urine, iv, 20 mg/kg, IV 20 mg/kg, bile duct cannulated rats, read-out: Ke (excretion rate constant), urine (converted)): 1.11e-05 s⁻¹
k el ([7]; urine, iv, 20 mg/kg, IV 20 mg/kg, bile duct cannulated rats, read-out: Kel (elimination rate constant), urine (converted)): 1.39e-05 s⁻¹
k el ([7]; urine, iv, 20 mg/kg, IV 20 mg/kg, non-cannulated rats, read-out: Ke (excretion rate constant), urine (converted)): 2.5e-05 s⁻¹
k el ([7]; urine, iv, 20 mg/kg, IV 20 mg/kg, non-cannulated rats, read-out: Kel (elimination rate constant), urine (converted)): 2.78e-05 s⁻¹
k el ([7]; urine, po, 20 mg/kg, oral 20 mg/kg, bile duct cannulated rats, read-out: Ke (excretion rate constant), urine (converted)): 1.67e-05 s⁻¹
k el ([7]; urine, po, 20 mg/kg, oral 20 mg/kg, bile duct cannulated rats, read-out: Kel (elimination rate constant), urine (converted)): 1.94e-05 s⁻¹
k el ([7]; urine, po, 20 mg/kg, oral 20 mg/kg, non-cannulated rats, read-out: Ke (excretion rate constant), urine (converted)): 1.11e-05 s⁻¹
k el ([7]; urine, po, 20 mg/kg, oral 20 mg/kg, non-cannulated rats, read-out: Kel (elimination rate constant), urine (converted)): 1.94e-05 s⁻¹
Excreted in urine, % of the dose [7]: 15%
Excreted in urine, % of the dose ([7]; listed as CDRI 85/92): ~ 15%
% of dose recovered, bile 0–12 h [7, 17]: 0.3%
% of dose recovered, bile 12–24 h [7, 17]: 0.08%
% of dose recovered, urine 0–12 h [7, 17]: 1.5%
% of dose recovered, urine 12–24 h [7, 17]: 0.2%
fe (fraction excreted), bile [7, 17]: 0.0037
fe (fraction excreted), urine [7, 17]: 0.83
% of dose recovered, bile total [7, 18]: 0.37 ± 0.12% and 0.37%
% of dose recovered, urine total [7, 18]: 1.7 ± 0.8% and 1.7%
% of dose recovered, feces 0–12 h [7, 19]: 1.0%
% of dose recovered, feces 12–24 h [7, 19]: 0.2%
% of dose recovered, urine 0–12 h [7, 19]: 3.7%
% of dose recovered, urine 12–24 h [7, 19]: 0.5%
fe (fraction excreted), feces [7, 19]: 0.012
% of dose recovered, feces total [7, 20]: 1.2 ± 0.6% and 1.2%
% of dose recovered, urine total [7, 20]: 4.2 ± 1.1% and 4.2%
Levels of the compound in bile and feces ([7]; rats, 20 mg/kg): insignificant levels
Compound: O=C1NC(C(=O)O)/C(=C\Cc2ccccc2)O1 (stereo not drawn) [CDRI-85/92, (5E)-2-oxo-5-(2-phenylethylidene)-1,3-oxazolidine-4-carboxylic acid]
% inhibition in the free acidity (free acidity): fairly compares with that of Omeprazole
aqueous solubility [3]: > 500 µg/mL
Inhibition of proton pumps of the kidney and bone [4]: not inhibiting
cytoprotective activity [5]: good cytoprotective activity
Metabolism by glutathione-S-transferases [8]: very slow metabolism
Inhibition of the gastric proton pump (gastric proton pump): selective and competitive inhibition
Ka (absorption rate constant) [9]: 0.12 h⁻¹
log P [10]: 0.5

Compound: COc1ccc2[nH]c([S+]([O-])Cc3ncc(C)c(OC)c3C)nc2c1 (stereo not drawn) [Omeprazole, reference compound]
half-life [11]: less than 5 min
Type of proton pump inhibition (gastric proton pump): irreversible proton pump inhibitor
